# Laboratory results taken from patent US6465196B1, “Drug screen for identifying an agent that modulates low density lipoprotein receptor adaptin-ligand binding” (Board of Regents, The University of Texas System, priority 2001, dated 2002).
# Target: T1, GST-PTB domain fusion protein (Homo sapiens, UniProt Q5SW96)
# T1 construct: made in house
# T1 sequence (Q5SW96 48-175): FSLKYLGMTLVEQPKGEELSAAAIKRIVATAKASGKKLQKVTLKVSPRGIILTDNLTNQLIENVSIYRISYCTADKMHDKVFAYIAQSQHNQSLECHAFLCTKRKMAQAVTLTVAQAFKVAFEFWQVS
# Assay: Fluorescence polarization binding of fluorescent LDLR peptide probe to the PTB domain
# Settings: after 5 min at 4° C.
# Method: Peptide binding to the GST-PTB domain fusion protein is measured by using fluorescence polarization (also known as fluorescence anisotropy; Li, et al. 1997 Proc. Natl. Acad. Sci. USA 94:7204-7209) is a protocol adapted from Howell et al. 1999 Mol Cell Biol 19, 5179-5188. A16-mer LDLR peptide (acetyl-SINFDNPVYQKTTEDE-amide, residues 820-835 of SEQ ID NO:8) and its phosphorylated analog (phosphate on the tyrosine) are synthesized with an AMS 222 Multiple Peptide Synthesizer using TenetaGel S resin (Rapp Polymere) and purified by high-pressure liquid chromatography. Peptide concentrations are determined by spectrophotometry and confirmed by amino acid analysis. […] Reactions are stopped with 5 μmol of Tris HCl (pH 8.0) and analyzed by thin-layer chromatography (Silica gel 60; methanol-acetic acid-water [4:1:1]). […] Based on fluorescence intensity, the fluorescent peptide (probe) concentration in binding reaction mixtures was estimated to be 20 nM.
# Binding measurements are performed in a Beacon 2000 Variable Temperature Fluorescence Polarization System (PanVera Corporation). Essentially, a constant concentration of fluorescent probe peptide is incubated with various concentrations of the GST-PTB domain or GST in 100 μl of 0.5% Triton X-100-20 mM glutathione-200 mM Tris HCl (pH 8.0) at 4° C. and fluorescence polarization is measured. […]
row,Substance,"Binding, percent of maximum"
1,"acetyl-SINFDNPVYQKTTEDE-amide (Ac-SINFDNPVYQKTTEDE-NH2; also: fluorescein-C6 label, site not given here) [fluorescent probe peptide]",95%

# Same assay, conditions: linear Hill plot, noncooperative binding
row,Substance,Hill plot slope
1,"acetyl-SINFDNPVYQKTTEDE-amide (Ac-SINFDNPVYQKTTEDE-NH2; also: fluorescein-C6 label, site not given here) [fluorescent probe peptide]",1.0

# Tested on: a strand of SEQ ID NO:1
# Assay: Specific hybridization of LDLR adaptin domain-encoding polynucleotides under stringent conditions
# Format: binding, human
# Set-up: key: +: hybridize with a strand of SEQ ID NO:1 under Conditions I and/or II
# Settings: CC domain encoding polynucleotides; Conditions I and/or II
# Excerpt: These natural sequence LDLR adaptin polynucleotides provide hybridization probes and replication/amplification primers having a disclosed LDLR adaptin domain encoding cDNA sequence or fragments thereof sufficient to effect specific hybridization thereto. Such primers or probes are at least 12, preferably at least 24, more preferably at least 36 and most preferably at least 96 bases in length.
row,Substance,Hybridization
1,"SEQ ID NO:1, nucleotides 742-770: LDLR adaptin CC domain encoding polynucleotide (DNA GTCTGGGAGCTGGATGATGGCCTGGATGA; chemistry not given here)",+
2,"SEQ ID NO:1, nucleotides 775-789: LDLR adaptin CC domain encoding polynucleotide (DNA TTTTCGAGGCTTGCC; chemistry not given here)",+
3,"SEQ ID NO:1, nucleotides 784-809: LDLR adaptin CC domain encoding polynucleotide (DNA CTTGCCCAGTCTCGGACAAACCCTCA; chemistry not given here)",+
4,"SEQ ID NO:1, nucleotides 799-824: LDLR adaptin CC domain encoding polynucleotide (DNA ACAAACCCTCAGGTCCTGGACACTGG; chemistry not given here)",+
5,"SEQ ID NO:1, nucleotides 801-828: LDLR adaptin CC domain encoding polynucleotide (DNA AAACCCTCAGGTCCTGGACACTGGCCTG; chemistry not given here)",+

# Same assay, conditions: PTB domain encoding polynucleotides; Conditions I and/or II
row,Substance,Hybridization
1,"SEQ ID NO:1, nucleotides 142-164: LDLR adaptin PTB domain encoding polynucleotide (DNA TTCAGCCTCAAGTACCTGGGCAT; chemistry not given here)",+
2,"SEQ ID NO:1, nucleotides 185-218: LDLR adaptin PTB domain encoding polynucleotide (DNA AGGGTGAGGAGCTGTCGGCCGCCGCCATCAAGAG; chemistry not given here)",+
3,"SEQ ID NO:1, nucleotides 249-272: LDLR adaptin PTB domain encoding polynucleotide (DNA GAAGCTGCAGAAGGTGACTCTGAA; chemistry not given here)",+
4,"SEQ ID NO:1, nucleotides 263-286: LDLR adaptin PTB domain encoding polynucleotide (DNA TGACTCTGAAGGTGTCGCCACGGG; chemistry not given here)",+
5,"SEQ ID NO:1, nucleotides 297-320: LDLR adaptin PTB domain encoding polynucleotide (DNA GACAGACAACCTCACCAACCAGCT; chemistry not given here)",+
6,"SEQ ID NO:1, nucleotides 321-344: LDLR adaptin PTB domain encoding polynucleotide (DNA CATTGAGAACGTGTCCATATACAG; chemistry not given here)",+
7,"SEQ ID NO:1, nucleotides 345-368: LDLR adaptin PTB domain encoding polynucleotide (DNA GATCTCCTATTGCACAGCAGACAA; chemistry not given here)",+
8,"SEQ ID NO:1, nucleotides 369-392: LDLR adaptin PTB domain encoding polynucleotide (DNA GATGCACGACAAGGTGTTTGCATA; chemistry not given here)",+
9,"SEQ ID NO:1, nucleotides 393-416: LDLR adaptin PTB domain encoding polynucleotide (DNA CATCGCCCAGAGCCAGCACAACCA; chemistry not given here)",+
10,"SEQ ID NO:1, nucleotides 417-440: LDLR adaptin PTB domain encoding polynucleotide (DNA GAGCCTCGAGTGCCACGCCTTCCT; chemistry not given here)",+
11,"SEQ ID NO:1, nucleotides 442-465: LDLR adaptin PTB domain encoding polynucleotide (DNA TGCACCAAGCGGAAGATGGCACAG; chemistry not given here)",+
12,"SEQ ID NO:1, nucleotides 491-511: LDLR adaptin PTB domain encoding polynucleotide (DNA CCTTCAAAGTCGCCTTTGAGT; chemistry not given here)",+
13,"SEQ ID NO:1, nucleotides 511-525: LDLR adaptin PTB domain encoding polynucleotide (DNA TTTTGGCAGGTGTCC; chemistry not given here)",+
